The source of these data is US20230158048A1, “COMBINATIONS” (Recurium IP Holdings, LLC, priority 2020, published 2023).

One experiment relates to ZR-75-1 cells. The experiment can be described thus: CTG Assay (CellTiter-Glo Luminescent Cell Viability Assay), cell proliferation. It counts as cell-based. The note with it: Homo sapiens, 160 nM, 72 h. Here is the method: Cell proliferation was measured using the CellTiter-Glo® Luminescent Cell Viability Assay. The assay involved the addition of a single reagent (CellTiter-Glo® Reagent) directly to cells cultured in serum-supplemented medium. ZR-75-1 (ATCC® CRL-1500) cells were cultured according to ATCC recommendations and were seeded at 10,000 cells per well.
Compound 5A and Palbociclib were prepared as a DMSO stock solution (10 mM). Plates were incubated at 37° C., 5% CO2 for 72 h and then equilibrated at room temperature for approximately 30 min. An equal-volume amount of CellTiter-Glo® Reagent (100 μL) was added to each well. Plates were mixed for 2 min on an orbital shaker to induce cell lysis and then incubated at RT for 10 min to stabilize the luminescent signal. Luminescence (RLU (relative light unit)) was recorded using a SpectraMAX, M5e plate reader according to CellTiter-Glo protocol. Percent inhibition was calculated using the following formula: % inhibition=(RLU*100/(RLU of the cell background)). IC50 of each compound was calculated using GraphPad Prism by nonlinear regression analysis.

The next experiment deals with MCF-7 cells. Put plainly: Xenograft Tumor Model, MCF-7 (ER+ Breast cancer) mouse model. It is filed as in vivo. To be noted: MCF-7 xenograft mice, 50 mg/kg p.o. As to the method: Mice were inoculated with MCF-7 cells subcutaneously on the 2nd right mammary fat pad with the single cell suspension of 95% viable tumor cells (1×10^7) in 100 μL DMEM Matrigel mixture (1:1 ratio) without serum for the tumor development. The treatment was started when the mean tumor size reached approximately 226 mm^3, with individual tumor size ranging from 185-245 mm^3. Animals were randomly distributed into treatment groups of 10 animals each and dosed with vehicle and indicated compounds at indicated dosage and frequency provided in FIG. 4 and Table 3. In FIG. 4, the bottom line with star is Compound 5A (200 mg/kg p.o. qd×24)+Palbociclib (50 mg/kg p.o. pd×24). Tumor volumes were evaluated twice per week to calculate tumor volume over time, and mice were weighed twice per week as a surrogate for signs of toxicity. Tumor growth inhibition (TGI) was calculated using the following equation TGI=(1−(Td−T0)/(Cd−C0))×100%. Td and Cd are the mean tumor volumes of the treated and control animals, and TO and C0 are the mean tumor volumes of the treated and control animals at the start of the experiment. The tumor regression was defined as individual tumor volume (TV) decrease (terminal TV compared to initial TV). The percent tumor regression was calculated using the formula: (1−(Td/T0))×100%.

Regarding `CC(=O)c1c(C)c2cnc(Nc3ccc(N4CCNCC4)cn3)nc2n(C2CCCC2)c1=O` [Palbociclib], the inhibition – broadly, the percentage by which the read-out fell short of the control – at 0.16 µM in the experiment with ZR-75-1 cells worked out at 20%. The “TUMOR REGRESSION % (DAY 23)” value with MCF-7 cells was determined as 0%.
